Compound: Cc1ccc2nc(NCCN)c3ncc(C)n3c2c1 + CC(=O)c1c(C)c2cnc(Nc3ccc(N4CCNCC4)cn3)nc2n(C2CCCC2)c1=O [Palbociclib] (partner 0.5 µM)
Test: relative viability (nuclei count vs DMSO), 5 days (fraction); higher = more cells survive
Details: first compound 0.4 µM
How it was run: (§1)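 Relative viability was taken as the ratio of nuclei in treated wells to nuclei in vehicle wells. Lung cancer cell lines in 1536-well plates received compounds by pin tool one day after seeding, either one drug alone or a fixed anchor-drug dose plus five library-drug doses (not always all listed) in √10 steps. Nuclei were counted on 4× images after 5 days of treatment, and values are medians of duplicate plates.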

Going from HCC-366 to NCI-H1666, the relative viability rises from 0.343 to 0.598.

Going from NCI-H2087 to NCI-H358, the relative viability falls from 0.174 to 0.123.

Going from NCI-H2170 to H3255, the relative viability falls from 0.356 to 0.312.

First: COR-L23
Second: COR-L 105
The relative viability of the first is lower: 0.323 for the first, 0.43 for the second.

First: LOU-NH91
Second: ChaGo-K-1
The relative viability of the first is lower: 0.52 for the first, 0.919 for the second.

Going from NCI-H1793 to NCI-H2405, the relative viability rises from 0.283 to 0.518.

First: HOP-62
Second: HCC-44
The relative viability of the first is lower: 0.475 for the first, 0.914 for the second.

Going from SK-MES-1 to LU99A, the relative viability rises from 0.351 to 0.434.

Going from BEN to NCI-H1648, the relative viability falls from 0.479 to 0.237.

Same assay, conditions: first compound 1.265 µM

First: NCI-H522
Second: NCI-H2342
The relative viability of the first is higher: 1.04 for the first, 0.532 for the second.

Going from NCI-H727 to NCI-H1650, the relative viability falls from 0.691 to 0.349.

First: NCI-H1993
Second: SW 1573
The relative viability of the first is higher: 0.501 for the first, 0.428 for the second.

First: NCI-H838
Second: LCLC-103H
The relative viability of the first is lower: 0.223 for the first, 0.497 for the second.

Compared with NCI-H520, NCI-H2126 is higher in relative viability: 0.212 for the first, 0.403 for the second.

Compared with EMC-BAC-2, NCI-H2085 is lower in relative viability: 0.521 for the first, 0.469 for the second.

Going from HCC-366 to NCI-H1666, the relative viability rises from 0.382 to 0.611.

Compared with NCI-H2087, NCI-H358 is lower in relative viability: 0.286 for the first, 0.145 for the second.

First: NCI-H2170
Second: H3255
The relative viability of the first is higher: 0.381 for the first, 0.327 for the second.

Going from COR-L23 to COR-L 105, the relative viability rises from 0.318 to 0.4.

Going from LOU-NH91 to ChaGo-K-1, the relative viability rises from 0.542 to 0.891.

Compared with NCI-H1793, NCI-H2405 is higher in relative viability: 0.312 for the first, 0.522 for the second.

Compared with HOP-62, HCC-44 is higher in relative viability: 0.469 for the first, 0.894 for the second.

First: SK-MES-1
Second: LU99A
The relative viability of the first is lower: 0.341 for the first, 0.456 for the second.

Going from BEN to NCI-H1648, the relative viability falls from 0.465 to 0.25.

Same assay, conditions: first compound 4 µM

Compared with NCI-H522, NCI-H2342 is lower in relative viability: 0.87 for the first, 0.531 for the second.

Compared with NCI-H727, NCI-H1650 is lower in relative viability: 0.722 for the first, 0.226 for the second.

First: NCI-H1993
Second: SW 1573
The relative viability of the first is higher: 0.596 for the first, 0.134 for the second.

Going from NCI-H838 to LCLC-103H, the relative viability rises from 0.264 to 0.488.

Going from NCI-H520 to NCI-H2126, the relative viability rises from 0.243 to 0.372.

Compared with EMC-BAC-2, NCI-H2085 is lower in relative viability: 0.486 for the first, 0.478 for the second.

Compared with HCC-366, NCI-H1666 is higher in relative viability: 0.352 for the first, 0.665 for the second.

First: LK-2
Second: NCI-H2087
The relative viability of the first is higher: 0.725 for the first, 0.323 for the second.

First: NCI-H358
Second: NCI-H2170
The relative viability of the first is lower: 0.131 for the first, 0.342 for the second.

Compared with H3255, COR-L23 is higher in relative viability: 0.317 for the first, 0.323 for the second.

First: COR-L 105
Second: LOU-NH91
The relative viability of the first is lower: 0.438 for the first, 0.464 for the second.

Going from ChaGo-K-1 to NCI-H1793, the relative viability falls from 0.907 to 0.318.

Compared with NCI-H2405, HOP-62 is lower in relative viability: 0.508 for the first, 0.464 for the second.

Going from HCC-44 to SK-MES-1, the relative viability falls from 0.99 to 0.326.

Compared with LU99A, BEN is higher in relative viability: 0.41 for the first, 0.48 for the second.

NCI-H1648 was tested, and the relative viability was 0.282.

Compound: Cc1ccc2nc(NCCN)c3ncc(C)n3c2c1 + N=C(N)NC(=N)NCCc1ccccc1 [Phenformin] (partner 250 µM)
Test: as above
Details: first compound 0.04 µM
How it was run: as §1

First: NCI-H522
Second: NCI-H2342
The relative viability of the first is higher: 0.695 for the first, 0.592 for the second.

Compared with NCI-H727, NCI-H1650 is higher in relative viability: 0.436 for the first, 0.442 for the second.
